# Source: patent US20250263439A1, “HETERODIMERIC PEPTIDE REAGENTS AND METHODS” (REGENTS OF THE UNIVERSITY OF MICHIGAN, priority 2018, published 2025)
# Several values for one entry are separate records, joined by “and”; a condition that tells them apart may be missing. Identical values can stand only once. Entries after “also recorded” stand apart in the source; their conditions may differ. Bridge positions count the residues as written; N and C are the ends. Square brackets hold non-standard residues; d marks the D form. Ends that are not written are not given here. Peptide text beside a SMILES is read from it. I, II: the chains in the order shown. * marks the point of attachment. X1 = CC1(C)C(=CC=C2CCCC(C=CC3=[N+](CCCCCC(=O)NCCN4C(=O)CC(*)C4=O)c4ccc(S(=O)(=O)O)cc4C3(C)C)=C2Oc2ccc(S(=O)(=O)O)cc2)N(CCCCS(=O)(=O)[O-])c2ccc(S(=O)(=O)O)cc21; AEEEA = NCCOCCOCCOCC(=O)O
# Tests used:
# OE33 cells [1] = assay: Apparent dissociation constant by flow cytometry with OE33 cells; type: binding, human; details: flow cytometry, 4° C.
# Protocol: The apparent dissociation constant (Kd) was measured to assess binding affinity of the heterodimer to OE33 cells. The heterodimer was serially diluted in PBS at concentrations of about 0, 10, 25, 50, 100, and 200 nM with about […] at 4° C. for one hour and washed with cold PBS. The mean fluorescence intensities were measured with flow cytometry (BD LSRII, BD Biosciences). The equilibrium dissociation constant Kd 1/Ka was calculated with a least-squares fit of the data to the nonlinear equation I=(I0+ImaxKa[X])/(I0+Ka[X]). I0 and Imax are the initial and maximum fluorescence intensities, corresponding to no peptide and at saturation, respectively, and [X] represents the concentration of bound peptide. Prism 5.0 software (Graphpad Inc.) was used to calculate Kd and Ka.
# OE33 cells [2] = assay: Apparent association time constant by flow cytometry with OE33 cells; type: binding, human; details: for apparent association time constant Ka: flow cytometry, 1 μM, 4° C.; for apparent association time constant (time): value in brackets after Ka
# Protocol: The apparent association time constant (Ka) was measured to assess binding kinetics to OE33 cells. OE33 cells were grown to about 80% confluence in 10 cm dishes, and cells were then detached with PBS-based cell dissociation buffer (Invitrogen). About 10^5 cells were incubated with 1 μM of the heterodimer at 4° C. for different time periods ranging from […]. The cells were centrifuged, washed with cold PBS, and fixed with 4% PFA. Flow cytometry was performed, and the median fluorescence intensity (y) was ratioed with that of OE33 cells without addition of peptide at time points (t) using Flowjo software. The rate constant K was calculated by fitting the data to the first-order kinetics model, y(t)=Imax[1−exp^(−kt)], where Imax=maximum value, using Prism 5.0 software.
# [3] = system: EGFR and ErbB2 mediated signaling; assay: Effect on downstream cell signaling in SKBr3 cells (Western blot); type: cell-based, human
# Protocol: The effect of heterodimer binding on downstream signaling was evaluated in SKBr3 cells. SKBr3 cells were seeded in 6-well flat-bottom plates. […] EGF (#E9644, Sigma) was reconstituted to 1 mg/mL using 10 mM acetic acid, diluted with 0.1% BSA, and added to SKBr3 cells at a concentration of 100 ng/mL. Lapatinib (CDS022971, Sigma) was diluted to 100 nM in DMSO and PBS from 1 mg/mL stock solution, and was added to the cells incubated with heterodimer at concentrations of 1, 5, and 20 μM in separate wells.
# Flo1-HER2 cells = assay: Confocal binding of FITC-labeled candidate peptides to Flo1-HER2 cells; type: cell-based; details: FITC label, among five leading candidates
# Protocol: A FITC label was attached to each peptide, and binding to Flo1-HER2 and QhTERT cells (control) was imaged using confocal microscopy. […] From the model, this peptide was determined to bind to HER2 domain 3. The peptide was then labeled for deep tissue imaging with a Cy5.5 fluorophore via a GGGSK (SEQ ID NO: 3) linker on the C-terminus, hereafter KSP*-Cy5.5. Cy5.5 was chosen for high quantum yield and photostability. The linker prevents steric hindrance by spatially separating the fluorophore from the peptide. A scrambled sequence PPSNFKR (SEQ ID NO: 4) was developed for use as control by altering the conformationally rigid spacer PNP and moving both hydrophobic and hydrophilic amino acids at the C-terminus. This control peptide also was linked to Cy5.5 via GGGSK (SEQ ID NO: 3), hereafter PPS*-Cy5.5. […] The fluorescence emission peak occurs at 708 nm in the NIR spectrum.
# [4] = system: human OE33 xenograft tumors; assay: In vivo fluorescence (FL) imaging of OE33 xenograft tumors (IRDye800); parameters: species or system mice; details: for Fluorescence T/B ratio, mean (±SD): 2 hours post-injection, n=6 mice
# Protocol: (§1) FL and PA images were collected following systemic administration of QRH*-KSP*-E3-IRDye800 and (GGGAGGG (SEQ ID NO: 28))2-E3-IRDye800 (control) in human OE33 xenograft tumors to characterize pharmacokinetics. […] The mean intensity for either modality regressed to baseline at ˜24 hours post-injection.
# [5] = system: human OE33 xenograft tumors; assay: In vivo photoacoustic (PA) imaging of OE33 xenograft tumors (IRDye800); parameters: species or system mice; details: for Photoacoustic T/B ratio, mean: 2 hours post-injection
# Protocol: as §1
# Dual-modal images were collected at 2 hours following heterodimer injection to assess imaging depth. […] An ultrasound image confirmed tumor structure, FIG. 20D.
# [6] = Marshall et al.; cited from earlier work
# [7] = system: OE19, OE21, OE33 and SKBr3 cancer cells; assay: Cytotoxicity of IRDye800 heterodimer in panel of human cancer cells; type: cell-based; details: 48 hours, concentrations up to 500 μg/mL
# SKBr3 cells = assay: Confocal cell surface binding of IRDye800 heterodimer to cell panel; type: cell-based, human
# Protocol: Confocal microscopy was performed to validate specific heterodimer binding. […] AF568-labeled anti-EGFR and AF488-labeled anti-HER2 antibodies were used as positive controls to confirm EGFR and HER2 expression by the cell panel. Heterodimer and antibody binding to the surface (arrows) of SKBr3 cells co-localize, and a Pearson's coefficient of ρ=0.58 and 0.65 was measured for EGFR and HER2, respectively, on merged images, FIG. 23A-F.
# [8] = system: human OE33 xenograft tumors; assay: Biodistribution of IRDye800 heterodimer in major organs; parameters: species or system mice; details: mouse, in vivo
# Protocol: (§2) Tumor-bearing mice were sacrificed at 2 hours post-injection of heterodimer or control peptide.
# [9] = FL intensity in serum of tumor bearing mice over 48 hours; type: in vivo; details: mouse, 45 nmol
# Protocol: FIG. 19A) White light and FIG. 19B) FL images (λex=800 nm) are shown of heterodimer distribution in major organs at 2 hours post-injection. FIG. 19C) Mean (±SD) fluorescence intensity for heterodimer and control peptide was shown from n=6 mice each. […] FIG. 19D) FL intensity from serum of tumor bearing mice injected with heterodimer (300 μM, 150 μL PBS, n=6) is shown over 48 hours. Blood prior to heterodimer injection is shown as control.
# as §2
# [10] = system: OE33 human xenograft tumor; assay: Immunofluorescence of OE33 xenograft tumor sections ex vivo
# Protocol: Immunofluorescence was performed to validate target expression in sections of OE33 human xenograft tumor ex vivo.
compound,measurement,setting,value
KSP*-GGGSK-Cy5.5 (KSPNPRFGGGSK-NH2; also: Cy5.5 label on C-terminal Lys side chain) [KSP*-Cy5.5],Kd,OE33 cells [1],54 nM
same,apparent association time constant Ka,OE33 cells [2],0.35 min⁻¹
same,apparent association time constant (time),OE33 cells [2],2.8 min and 2.9 min
"CS(=O)(=O)CCNCc1ccc(-c2ccc3ncnc(Nc4ccc(OCc5cccc(F)c5)c(Cl)c4)c3c2)o1 [lapatinib, reference compound]",expression of phosphorylated EGFR / ErbB2 / AKT / ERK,[3]; 100 nM lapatinib,reduced expression
QRH*-GGGSK-Cy5.5 (QRHKPREGGGSK-NH2; also: Cy5.5 label on C-terminal Lys side chain) [QRH*-Cy5.5],Kd,OE33 cells [1],98 nM
same,apparent association time constant Ka,OE33 cells [2],0.21 min⁻¹
same,apparent association time constant (time),OE33 cells [2],4.7 min and 4.8 min
KSPNPRF (also: FITC label),mean fluorescence intensity with binding to Flo1-HER2,Flo1-HER2 cells,highest mean fluorescence intensity
"EGF (NSDSECPLSHDGYCLHDGVCMYIEALDKYACNCVVGYIGERCQYRDLKWWELR; Epidermal growth factor; UniProt P01133 971-1023, looked up) [an endogenous ligand for EGFR, positive control, reference compound]",p-AKT and p-ERK,"[3]; EGF 100 ng/mL, positive control",strong phosphorylation activity; also recorded: increased expression
"(GGGAGGG)2-E3-IRDye800: control peptide for the IRDye800 heterodimer (also: dimer via E3 linker, IRDye800 label) [reference compound]","Fluorescence T/B ratio, mean (±SD)",[4],3.89±0.94
same,"Photoacoustic T/B ratio, mean",[5],1.44±0.21
IRDye800,safety in animals,[6],safe
CC1(C)C(=CC=C2CCCC(C=CC3=[N+](CCCCCC(=O)NCCN4C(=O)CC(SC[C@H](NC(=O)[C@H](CCCCNC(=O)COCCOCCOCCNC(=O)[C@H](CCC(=O)O)NC(=O)[C@H](CCCNC(=N)N)NC(=O)[C@@H]5CCCN5C(=O)[C@H](CCCCN)NC(=O)[C@H](Cc5c[nH]cn5)NC(=O)[C@H](CCCNC(=N)N)NC(=O)[C@@H](N)CCC(N)=O)NC(=O)COCCOCCOCCNC(=O)[C@H](Cc5ccccc5)NC(=O)[C@H](CCCNC(=N)N)NC(=O)[C@@H]5CCCN5C(=O)[C@H](CC(N)=O)NC(=O)[C@@H]5CCCN5C(=O)[C@H](CO)NC(=O)[C@@H](N)CCCCN)C(N)=O)C4=O)c4ccc(S(=O)(=O)O)cc4C3(C)C)=C2Oc2ccc(S(=O)(=O)O)cc2)N(CCCCS(=O)(=O)[O-])c2ccc(S(=O)(=O)O)cc21 (stereo partly drawn) [QRH*-KSP*-E3-IRDye800] (I: H-KSPNPRF[AEEEA]KC(X1)-NH2 / II: H-QRHKPRE[AEEEA]; amide I:9-II:C),cytotoxicity,[7],Negligible cytotoxicity; also recorded: No cytotoxicity
same,binding to surface of SKBr3 cells,SKBr3 cells; confocal microscopy,Strong fluorescence intensity; also recorded: Strong binding
same,"mean fluorescence intensity SKBr3 versus OE21, OE19, and QhTERT cells",SKBr3 cells; paired t-test,significantly greater
same,"Fluorescence T/B ratio, mean (±SD)",[4],3.89±0.94
same,time of peak FL T/B ratio / intensity post-injection,[4]; intravenous,2 h
same,mean FL T/B ratio versus control peptide or PBS,"[4]; mouse, in vivo",significantly greater
same,time of regression of FL intensity to baseline / clearance,[4]; post-injection,~24 h
same,"Photoacoustic T/B ratio, mean",[5],2.44±0.36
same,time of peak PA T/B ratio / intensity post-injection,[5]; intravenous,2 h
same,mean PA T/B ratio versus control peptide or PBS,"[5]; mouse, in vivo",significantly greater
same,time of regression of PA intensity to baseline / clearance,[5]; post-injection,~24 h
same,tumor uptake (biodistribution),[8],high tumor uptake
same,half-life,[9],~3 h
same,T/B ratio,"[10]; OE33 xenograft tumor sections, 3 boxes of 20×20 μm2",5.0±0.8
same,binding to surface of OE33 xenograft tumor cells,[10]; immunofluorescence of sections,strong binding
